From patent US5215981A, “Polyether antibiotic MI215-NF3 substance, production process thereof, and agent for control of chicken coccidiosis” (Hokko Chemical Industry Co., Ltd., priority 1988, dated 1993)

Test system: Eimeria tenella
Assay: Anticoccidial activity in chicken inoculated with Eimeria tenella oocysts
Assay type: in vivo
Settings: for Rate (%) of relative body weight gain / Survival rate (%): 7 days after infection; for Lesion scores: cecum, 7th day after infection; for ACI (Anticoccidial Index): ACI=(relative weight gain+survival rate)-(lesion scores+oocyst scores)
Method: The activity of MI215-NF3 substance for controlling chicken coccidiosis was tested as summarized below.
1. Newly-hatched chicken (male) were preliminarily raised for 1 week, and […] chicken were used in the test.
2. The body weights of the chicken were individually measured at the beginning of the test. To make up each test group, ten chicken were selected and alloted in each group so as to minimize variations among the test groups.
3. Chicken were orally inoculated with 5×10^4 oocysts of Eimeria tenella per chick through a stomach probe tube.
4. After the oocyst inoculation, each chick was allowed to take ad libitum a feed which had been prepared by mixing a predetermined amount of MI215-NF3 substance (sodium salt) with a special feed containing no anticoccidial agent. Incidentally, the chicken were also allowed to drink water ad libitum.
5. Up to the 7th day after the oocyst inoculation, the number of oocysts in feces from each chick and the state of the feces were observed everyday.
6. Each chick was anatomized on the 7th day after the infection. Anatomical procedures were as follows.
1) The body weight of each chick was measured.
2) Each chick was sacrificed by dislocation of neck cervical fracture.
3) Each chick was subjected to celiotomy and the cecum was enucleated. The cecum was visually inspected for any lesions on both outer and inner walls of cecum.
4) The cecum thus inspected was individually disintegrated in a homogenizer, whereby a cecum suspension was prepared. The number of oocysts in the suspension was counted.
5) Based on the results of the above inspections, the value of ACI (Anticoccidial Index) was determined in accordance with the evaluation method proposed by Merck & Co., Inc., U.S.A., namely, by the following equation:
ACI=(rate (%) of relative body weight gain+survival rate (%) of
chick)-(lesion scores+oocyst scores)
Upon determination of the above ACI value, the "rate of weight gain" of the chicken in each group of chicken during the test period for estimation of the drug efficacy and the "rate of relative body weight gain" used for the calculation of ACI were evaluated in accordance with the following equations: […]
______________________________________
Rate (%) of body weight gain = [(mean body weight of
chicken at the end of the test - mean body
weight of the chicken at the beginning of
the test) .div. mean body weight of the chicken
at the beginning of the test] × 100.
Rate (%) of relative body weight gain =
[(rate of body weight gain of the treated group
or an infected but non-treated group) .div. rate
of body weight gain of a non-infected and non-
On the other hand, the term "lesion scores" means a value which is obtained by evaluating, in terms of indexes, the results of visual inspection of lesions on an enucleated cecum sample. The term "oocyst scores" means a value which is obtained by evaluating, in terms of indexes, the number of oocysts actually counted. Details of the procedure for the determination of ACI values are described, for example, in the literature compiled by Kiyoshi Tsunoda, "Chicken Coccidiosis", pp 95-101, Chikusan Shuppan Sha (May, 1983).

SMILES	Oocyst scores (50 ppm in feed)	Rate (%) of relative body weight gain (50 ppm in feed) [%]	Survival rate (%) (50 ppm in feed)	Lesion scores (50 ppm in feed)	ACI (Anticoccidial Index) (50 ppm in feed)	Oocyst scores (100 ppm in feed)	Rate (%) of relative body weight gain (100 ppm in feed) [%]	Survival rate (%) (100 ppm in feed)	Lesion scores (100 ppm in feed)	ACI (Anticoccidial Index) (100 ppm in feed)
CC[C@@H](C(=O)[C@@H](C)[C@@H](O)[C@H](C)[C@@H]1O[C@@H]([C@@H](CC)C(=O)O)CC[C@@H]1C)[C@H]1O[C@]2(C=C[C@@H](O)[C@]3(CC[C@@](C)([C@H]4CC[C@](O)(CC)[C@H](C)O4)O3)O2)[C@H](C)C[C@@H]1C [Salinomycin, salinomycin]	10	71.13	100	34.0	127.1					
CC[C@@]1([C@@H]2O[C@@H]([C@H]3O[C@@](O)(CO)[C@H](C)C[C@@H]3C)C[C@@H]2C)CC[C@H]([C@]2(C)CC[C@]3(C[C@H](O)[C@@H](C)[C@@H]([C@@H](C)[C@@H](OC)[C@H](C)C(=O)O)O3)O2)O1 [Monensin]						20	96.13	100	32.0	144.1
